Columns and labels:
C57BL6 mice = settings: relative to wortmannin as 1.0; for Liver toxicity relative to wortmannic: mean percent increase in serum ALT and AST at the MTD or highest dose tested; for Lymphocyte toxicity relative to wortmannin: percent decrease in lymphocyte counts at the MTD or highest dose tested
Text: (§1) Highlighted are the compounds being made for antitumor testing.

[1] = target: phosphatidylinositol-3-kinase; assay: PI-3 kinase inhibition; assay type: biochemical
Text: as §1

SMILES | Liver toxicity relative to wortmannic (C57BL6 mice) | Lymphocyte toxicity relative to wortmannin (C57BL6 mice) | IC50 [1] [nM]
COC[C@H]1OC(=O)/C(=C/SCc2ccccc2)C2=C(O)C(=O)C3=C([C@H](OC(C)=O)C[C@]4(C)C(=O)CC[C@@H]34)[C@]21C [DJM2-170] | 1.7 | 1.1 | –
COC[C@H]1OC(=O)/C(=C/NC(C)C(=O)O)C2=C(O)C(=O)C3=C([C@H](OC(C)=O)C[C@]4(C)C(=O)CC[C@@H]34)[C@]21C (stereo partly drawn) [DJM2-177] | 0.2 | 2.0 | –
COC[C@H]1OC(=O)/C(=C/NCC(N)=O)C2=C(O)C(=O)C3=C([C@H](OC(C)=O)C[C@]4(C)C(=O)CC[C@@H]34)[C@]21C [DJM2-190] | – | 0.6 | –
COC[C@H]1OC(=O)c2coc3c2[C@@]1(C)C1=C(C3=O)[C@@H]2CCC(=O)[C@@]2(C)C[C@H]1OC(C)=O [wortmannin] | – | – | 0.3

— EP1914230B1 (The Arizona Board of Regents on behalf of the University of …, priority 2001, dated 2003)
